Data: US20130039993A1, “ARGON-BASED INHALABLE GASEOUS MEDICAMENT AGAINST PERIPHERAL ORGAN DEFICIENCIES OR FAILURES” (L'Air Liquide, Societe Anonyme pour l'Etude et …, priority 2010, published 2013)

Legend:
[1] = test system: kidneys isolated from rats; test: Renal function of grafted rat kidneys preserved 6 hours in a gaseous atmosphere (creatinine clearance, 24-hour albuminuria); assay type: in vivo, Wistar rats; settings: days D7 and D14 after graft, kidney preserved 6 hours in 100% by volume gas; for creatinine clearance of the grafted kidneys: estimated, related back to 100 g of weight, FIG. 1
Text: (§1) To do this, kidneys isolated from rats intended for a transplantation were used.
(§2) 120 Wistar rats, weighing between 200 g and 250 g, were used while adhering to the Guide for the Care and Use of Laboratory Animals published by the National Institutes of Health.
(§3) The animals were operated upon under general anesthesia and the left kidneys were removed and then preserved in several gaseous atmospheres, namely: • Group A (according to the invention): argon (100% by volume) • Group B (comparative): xenon (100% by volume) • Group C (1st control): air (i.e. essentially N2/O2 mixture) • Group D (2nd control): nitrogen
(§4) The kidneys of a rat are preserved therein for 6 hours before being grafted onto another anesthetized rat according to the conditions previously described. The rats are kept under observation for 14 days.
(§5) In order to carry out an evaluation of the effectiveness of the protection produced by the various gases tested, the renal function and renal morphology of the grafted kidneys were examined.
The renal function was evaluated by calculating the creatinine clearance estimated and related back to 100 g of weight, and by measuring the 24-hour albuminuria.

[2] = test system: kidneys isolated from rats; test: Renal morphology of grafted rat kidneys preserved 6 hours in a gaseous atmosphere (standard histology, histochemistry with anti-active caspase-3 and anti-CD10 antibodies); assay type: in vivo, Wistar rats; settings: grafted kidneys preserved 6 hours in 100% by volume gas; for kidneys showing cell lysis with subconfluent coagulation necrosis (standard histology): share of kidneys of the group
Text: as §1, §2, §3, §4, §5
The renal morphology was evaluated by standard histology and histochemistry using anti-active caspase-3 and anti-CD10 antibodies.

Row | Compound | creatinine clearance of the grafted kidneys [1] | kidneys showing cell lysis with subconfluent coagulation necrosis (standard histology) [2] | albuminuria ([1]; 24-hour albuminuria, FIG. 2) | CD10 labeling (histochemistry; preservation of the tubule functional structure) ([2]; anti-CD10 antibody) | caspase-3 labeling (histochemistry; cell degeneration) ([2]; anti-active caspase-3 antibody)
1 | [Xe] [xenon, reference compound] | slightly better with xenon, but significantly lower compared with argon | ⅓ |  |  | 
2 | [Ar] [argon] | preserved a good creatinine clearance | no kidney of group A under an argon atmosphere exhibited any sign of cell lysis or necrosis | half as much in group A than in the other groups | very well preserved | discrete and in foci
